From patent US20040121316A1 (priority 2002, published 2004)
“And” between values parts separate entries of the source, which are not always exact repeats. Equal values may be shown once. Read-outs that look alike come from different tables or passages of the source.

Columns and labels:
[1] = target: T1, recombinant HIV-1 protease (Human immunodeficiency virus type 1 group M subtype B, UniProt P04585); assay: biochemical
T1 construct: Enzyme: recombinant HIV-1 protease expressed in E.Coli; purchased Bachem California, Inc. H-9040; host or cells: E. coli

mutant HIV-1 I84V/L90M = assay: Resistance Evaluation, I84V/L90M fold change; format: cell-based; design: scale not given here
[2] = tested on: wild-type HIV-1 strain IIIB; assay: microbe, parasite or virus in culture; format: cell-based; design: scale not given here
HIV-1 30N82I88D = assay: microbe, parasite or virus in culture; format: cell-based; conditions: Human immunodeficiency virus 1, read-out: Cell-based assay (MT-4) EC50/nM 30N82I88D
HIV-1 84V90M = assay: microbe, parasite or virus in culture; format: cell-based; conditions: Human immunodeficiency virus 1, read-out: Cell-based assay (MT-4) EC50/nM 84V90M
84V90M HIV protease = 84V90M HIV protease (Human immunodeficiency virus type 1 group M subtype B, UniProt P04585, I572V/L578M); assay: biochemical; design: species or system HIV-1
WT HIV-1 = assay: microbe, parasite or virus in culture; format: cell-based; conditions: Human immunodeficiency virus 1, read-out: Cell-based assay (MT-4) EC50/nM WT
HIV-1 48V54V82A = assay: microbe, parasite or virus in culture; format: cell-based; conditions: Human immunodeficiency virus 1, read-out: Cell-based assay (MT-4) EC50/nM 48V54V82A
[3] = EC50 of mutant I84V/L90M relative to wild type, class symbols
[4] = Human immunodeficiency virus 1, IIIB

## CCOC(=O)C(C)OP(=O)(Cc1ccc2c(c1)CCN(CC(NC(=O)OC1COC3OCCC13)C(O)CN(CC(C)C)S(=O)(=O)c1ccc(OC)cc1)C2)Oc1ccccc1 (stereo not drawn)
[1]; Ki, class symbols, Table 10
  Ki: 0.1 to 1 nM
Mutant HIV-1 I84V/L90M; [3]
  I84V/L90M fold change: + (>3 to ≦10)

## CCOC(=O)C(C)OP(=O)(COc1ccc2c(c1)CCN(CC(NC(=O)OC1COC3OCCC13)C(O)CN(CC(C)C)S(=O)(=O)c1ccc(OC)cc1)C2)Oc1ccccc1 (stereo not drawn)
[1]; Ki, class symbols, Table 10
  Ki: 0.1 to 1 nM
Mutant HIV-1 I84V/L90M; [3]
  I84V/L90M fold change: + (>3 to ≦10)

## COc1ccc(S(=O)(=O)N(CC(C)C)CC(O)C(CC2=CCN(CP(=O)(O)OC(C)C(=O)O)CC2)NC(=O)OC2COC3OCCC23)cc1 (stereo not drawn)
[1]
  Ki (pM): + + +
Mutant HIV-1 I84V/L90M; mutant I84V/L90M vs wild type
  I84V/L90M fold change: − (≦3)
[2]
  EC50 (nM): + + +

## CCOC(=O)C(C)OP(=O)(CCN1CC=C(CC(NC(=O)OC2COC3OCCC23)C(O)CN(CC(C)C)S(=O)(=O)c2ccc(OC)cc2)CC1)Oc1ccccc1 (stereo not drawn)
[1]; read-out: Ki
  Ki: > 1 nM
Mutant HIV-1 I84V/L90M; mutant I84V/L90M vs wild type
  I84V/L90M fold change: − (≦3)
[2]
  EC50 (nM): + + +

## COc1ccc(S(=O)(=O)N(CC(C)C)CC(O)C(CN(C)Cc2ccc(P(=O)(O)OC(C)C(=O)O)cc2)NC(=O)OC2COC3OCCC23)cc1 (stereo not drawn)
[1]
  Ki (pM): + +
Mutant HIV-1 I84V/L90M; mutant I84V/L90M vs wild type
  I84V/L90M fold change: + + +
[2]; read-out: EC50
  EC50: 500 to 5000 nM

## CCOC(=O)C(C)OP(=O)(Cc1ccc2c(c1)CCN(C[C@H](NC(=O)O[C@H]1CO[C@H]3OCC[C@H]31)[C@H](O)CN(CC(C)C)S(=O)(=O)c1ccc(OC)cc1)C2)Oc1ccccc1 (stereo partly drawn)
[1]
  Ki (pM): + +
Mutant HIV-1 I84V/L90M; mutant I84V/L90M vs wild type
  I84V/L90M fold change: + +
[2]
  EC50 (nM): + +

## COc1ccc(S(=O)(=O)N(CC(C)C)CC(O)C(Cc2ccc(NCP(=O)(O)O)cc2)NC(=O)OC2COC3OCCC23)cc1 (stereo not drawn)
[1]; read-out: Ki
  Ki: 0.1 to 1 nM
Mutant HIV-1 I84V/L90M; mutant I84V/L90M vs wild type
  I84V/L90M fold change: + (>3 to ≦10)
[2]
  EC50 (nM): + +

## O=C(O)c1cccc(CN2C(=O)N(Cc3ccc(O)cc3)C(Cc3ccccc3)C(O)C(O)C2Cc2ccccc2)c1 (stereo not drawn)
HIV-1 30N82I88D
  EC50: 887 nM
HIV-1 84V90M
  EC50: > 6000 nM
84V90M HIV protease
  IC50: 174 nM
WT HIV-1
  EC50: 3060 nM

## Nc1n[nH]c2ccc(CN3C(=O)N(Cc4cccc(C(=O)O)c4)C(Cc4ccccc4)C(O)C(O)C3Cc3ccccc3)cc12 (stereo not drawn)
HIV-1 30N82I88D
  EC50: > 6000 nM
HIV-1 84V90M
  EC50: > 6000 nM
84V90M HIV protease
  IC50: 27 nM

## COC(=O)N[C@H](C(=O)N[C@@H](Cc1ccccc1)[C@@H](O)CN(Cc1ccc(-c2ccccn2)cc1)NC(=O)[C@@H](NC(=O)OC)C(C)(C)C)C(C)(C)C [Atazanavir, reference compound]
[1]; Ki
  Ki: 0.01 to 0.1 nM
Mutant HIV-1 I84V/L90M; [3]
  I84V/L90M fold change: +++ (>30)
[2]; [4]
  EC50: < 50 nM

## Nc1n[nH]c2ccc(CN3C(=O)N(CCCCOCP(=O)(O)O)C(Cc4ccccc4)C(O)C(O)C3Cc3ccccc3)cc12 (stereo not drawn) [CH2 OCH2PO3H2]
HIV-1 84V90M
  EC50: > 4240 nM
84V90M HIV protease
  IC50: 205 nM
WT HIV-1
  EC50: 1760 nM

## CCOP(=O)(COCCCCN1C(=O)N(Cc2ccc3[nH]nc(N)c3c2)C(Cc2ccccc2)C(O)C(O)C1Cc1ccccc1)OCC (stereo not drawn) [CH2OCH2PO3Et2]
HIV-1 30N82I88D
  EC50: 267 nM
HIV-1 84V90M
  EC50: 3300 nM
HIV-1 48V54V82A
  EC50: 430 nM
84V90M HIV protease
  IC50: 123 nM
WT HIV-1
  EC50: 119 nM

## COC(=O)C(C)NP(=O)(COc1ccc(CC(NC(=O)OC2COC3OCCC23)C(O)CN(CC(C)C)S(=O)(=O)c2ccc(OC)cc2)cc1)Oc1ccccc1 (stereo not drawn) [Example 30a]
[1]; Ki, class symbols, Table 10
  Ki: 0.01 to 0.1 nM
Mutant HIV-1 I84V/L90M; [3]
  I84V/L90M fold change: − (≦3)
[2]; [4]
  EC50: < 50 nM

## COc1ccc(S(=O)(=O)N(CC(C)C)CC(O)C(Cc2ccc(OCP(=O)(NC(C)C(=O)OC(C)C)Oc3ccccc3)cc2)NC(=O)OC2COC3OCCC23)cc1 (stereo not drawn) [Example 30c]
[1]; Ki, class symbols, Table 10
  Ki: 0.01 to 0.1 nM and < 0.01 nM
Mutant HIV-1 I84V/L90M; [3]
  I84V/L90M fold change: − (≦3)

## CCCCOC(=O)C(C)NP(=O)(COc1ccc(CC(NC(=O)OC2COC3OCCC23)C(O)CN(CC(C)C)S(=O)(=O)c2ccc(OC)cc2)cc1)Oc1ccccc1 (stereo not drawn) [Example 30d]
[1]; Ki, class symbols, Table 10
  Ki: 0.01 to 0.1 nM
Mutant HIV-1 I84V/L90M; [3]
  I84V/L90M fold change: − (≦3)
[2]; [4]
  EC50: < 50 nM

## COc1ccc(S(=O)(=O)N(CC(C)C)CC(O)C(Cc2ccc(OCP(=O)(Oc3ccccc3)OC(C)C(=O)OC(C)C)cc2)NC(=O)OC2COC3OCCC23)cc1 (stereo not drawn) [Example 31a]
[1]; Ki, class symbols, Table 10
  Ki: 0.01 to 0.1 nM and < 0.01 nM
Mutant HIV-1 I84V/L90M; [3]
  I84V/L90M fold change: − (≦3)
[2]; [4]
  EC50: < 50 nM

## CCCCOC(=O)C(C)OP(=O)(COc1ccc(CC(NC(=O)OC2COC3OCCC23)C(O)CN(CC(C)C)S(=O)(=O)c2ccc(OC)cc2)cc1)Oc1ccccc1 (stereo not drawn) [Example 31c]
[1]; Ki, class symbols, Table 10
  Ki: 0.01 to 0.1 nM
Mutant HIV-1 I84V/L90M; [3]
  I84V/L90M fold change: − (≦3)
[2]; [4]
  EC50: 50 to 500 nM
